Melting point and IC50 data for one molecule are collected here from patent US7122554B2, “Carboline derivatives” (Lilly Icos LLC., priority 2001, dated 2006).

In general, melting point refers to the temperature, or range, at which the solid turns liquid. The IC50 is the concentration at which inhibition is half-maximal.

One series addresses human recombinant PDE5 (Homo sapiens, UniProt O76074). The series is described as follows: Inhibitory effect on cGMP-PDE (PDE5 IC50, one-step assay). The class given is biochemical. The settings on record: human recombinant PDE5, 0.15 μM 8-[H3]-cGMP, 30 minutes incubation. On the procedure:
The compounds of structural formula (I) were tested for an ability to inhibit PDE5. The ability of a compound to inhibit PDE5 activity is related to the IC50 value for the compound, i.e., the concentration of inhibitor required for 50% inhibition of enzyme activity. The IC50 value for compounds of structural formula (I) were determined using recombinant human PDE5.
cGMP-PDE activity of compounds of the present invention was measured using a one-step assay adapted from Wells et al., Biochim. Biophys. Acta, 384, 430 (1975). The reaction medium contained 50 mM Tris-HCl, pH 7.5, 5 mM magnesium acetate, 250 μg/ml 5′-Nucleotidase, 1 mM EGTA, and 0.15 μM 8-[H^3]-cGMP. Unless otherwise indicated, the enzyme used was a human recombinant PDE5 (ICOS Corp., Bothell, Wash.).
Compounds of the invention were dissolved in DMSO finally present at 2% in the assay.

In the case of `S=C(NCc1cccc2ccccc12)N1CCc2c([nH]c3ccccc23)[C@H]1c1ccc2c(c1)OCO2` [Example 39, (1R)-1-benzo[1,3]dioxol-5-yl-1,3,4,9-tetrahydro-β-carboline-2-carbothioic acid (naphthalen-1-yl-methyl)amide], the melting point was in the range of 111 to 113 °C. The IC50 on human recombinant PDE5 is 119 nM.
